Measurements taken from article PMC9686985, “Chimeric Peptides Derived from Bovine Lactoferricin and Buforin II: Antifungal Activity against Reference Strains and Clinical Isolates of Candida spp” (Antibiotics, 2022).
In brackets after ≈: the same amount, converted by molar mass. Like-named read-outs stand apart in the source and are kept apart here. Non-standard residues stand in square brackets, D forms with d. Residues, ends and D or L forms follow the SMILES beside them. Ahx = NCCCCCC(=O)O

Legend:
[1] = tested on: C. albicans ATCC SC5314; format: cell-based, Candida albicans; conditions: for MFC: ATCC SC5314, 24 h
Method: (§1) Antifungal susceptibility testing was carried out using the broth microdilution (BMD) method, following the CLSI M27-A3 guidelines with slight modifications. Briefly, cells (0.5–2.5 × 10^3 CFU/mL) were incubated with peptides (200, 100, 50, 25, 12.5, and 6.25 µg/mL) at 37 °C for 48 h. MICs were visualized and densitometry (595 nm, microplate reader, Bio-Rad, ᵢMark^TM) was used to determine the lowest concentration of peptide that caused a significant decrease (MIC/2 or ≥50%) compared with the growth control (cells incubated in absence of peptide) (n = 3). In order to verify that the peptides were able to kill the yeast cells, the plates were also evaluated for minimum fungicidal concentration (MFC). Briefly, aliquots from each well from susceptibility testing assays were transferred to plates containing Sabouraud dextrose agar (SDA), which were then incubated at 37 °C for 24 h. The highest dilution with no growth on the agar plate was considered to be the MFC.

[2] = tested on: C. albicans 256 HUSI-PUJ; format: cell-based, Candida albicans; conditions: for MFC: 24 h; for MIC: 48 h
Method: as §1

[3] = tested on: C. albicans SC5314; format: cell-based, Candida albicans; conditions: SC5314, 48 h
Method: (§2) A time-kill kinetic assay was carried out according to the method previously described by Pfaller and coworkers with minor modifications. The peptides (C5, C6, C8, and C9) diluted in RPMI were tested at a range of concentrations: 0 (control), 0.2, 0.5, 1, and 2 times the MIC value for each strain. The isolates were subcultured on SBD, and then an inoculum was adjusted to a 0.5–2.5 × 10^3 CFU/mL in an RPMI 1640 medium. Yeast inoculum (150 uL) was added to a 100-well plate containing serial dilutions of the peptides. The plates were incubated with agitation at 37 °C in a plate reader (Bioscreen C MBR automated turbidometric analyzer, Growth Curves Ltd., Helsinki, Finland), which takes hourly absorbance readings. Moreover, fluconazole MICs were used as a control. The readings were analyzed with Bioscreen software (Growth Curves USA, Piscataway, NJ, USA) and GraphPad Prism 8.0.1 (GraphPad Soft-ware, San Diego, CA, USA). Statistical comparisons were made using an analysis of variance (two-way ANOVA) followed by a Tukey–Kramer post hoc test. P values less than 0.005 were considered significant. […] Moreover, previously determined FLC MICs (data not shown) were used as a control.

[4] = tested on: C. albicans 256; format: cell-based, Candida albicans; conditions: 256, 48 h
Method: as §2

[5] = tested on: human red blood cells; design: method as in PMID 33369144; conditions: cited from earlier work
[6] = tested on: C. auris 537 HUSI-PUJ; format: cell-based
Method: (§3) The in vitro interactions between the peptides (C6, C8, and C9) and the FLC drug were evaluated in a checkerboard assay, as previously described by Cokol et al.. Briefly, each isolate was prepared by picking colonies from an overnight culture in SBD at 37 °C and suspended in a sterile normal saline PBS buffer. The fungal inoculum was adjusted to 0.5 MacFarland and the inoculum was adjusted to 0.5–2.5 × 10^3 CFU/mL. The drug-peptide combinations were formed over a range of concentrations: 0 (control) and 0.06 to 2 times the MIC [51]. The fractional inhibitory concentration index (FICI) was calculated as follows:
(§4) FICI=CML peptide in combination/CMI peptide alone+CML FLC in combination/CMI FLC alone
(§5) The calculated FICI was reported as synergy with values FICI ≤ 0.5, additive FICI > 0.5–1, indifference FICI > 1–4, and antagonism FICI ≥ 4 [52].
(§6) A synergistic effect was considered to be when the effect of the combination exceeded the effects of the individual components. An additive effect was when the effect of the combination was equal to the sum of the effects of the individual components.

[7] = tested on: C. auris 001 HUSI-PUJ; format: cell-based
Method: as §3, §4, §5, §6

[8] = tested on: C. glabrata 1875 CHU-PUJ; format: cell-based
Method: as §3, §4, §5, §6

[9] = tested on: C. glabrata ATCC 2001; format: cell-based
Method: as §3, §4, §5, §6

[10] = tested on: C. auris 001; format: cell-based; conditions: 001, 48 h
Method: as §1

[11] = tested on: C. glabrata 1875; format: cell-based; conditions: 1875, 48 h
Method: as §1

[12] = tested on: C. auris 537; format: cell-based; conditions: 537, 48 h
Method: as §1

[13] = tested on: C. albicans 256 HUSI-PUJ; format: cell-based, Candida albicans; conditions: 256 HUSI-PUJ
Method: as §3, §4, §5, §6

[14] = tested on: E. coli; conditions: reported; cited from earlier work
Source text: LfcinB (20–25): RRWQWR is the shortest sequence derived from LfcinB with antibacterial, antifungal, and anticancer activity. In similar way, Buforin II (BFII) is an antimicrobial peptide with activity against Gram-positive and Gram-negative bacteria as well as fungi. Palindromic sequences have been designed from the 4-residue motif (RLLR) of Buforin II, and their antibacterial activity has been evaluated against Gram-negative and Gram-positive strains. The palindrome [RLLR]5: […] was reported to have an MIC of 0.7 µM against E. coli. Chimeras containing the minimum motif RRWQW ...

[15] = checkerboard run with C6, unit from footnote of Table 4

Molecule: CC(C)C[C@H](NC(=O)[C@H](CC(C)C)NC(=O)[C@H](CCCCN)NC(=O)[C@H](CCCCN)NC(=O)[C@H](CC(C)C)NC(=O)[C@H](CC(C)C)NC(=O)[C@H](CCCCN)NC(=O)CCCCCNC(=O)[C@H](CCCNC(=N)N)NC(=O)[C@H](Cc1c[nH]c2ccccc12)NC(=O)[C@H](CCC(N)=O)NC(=O)[C@H](Cc1c[nH]c2ccccc12)NC(=O)[C@H](CCCNC(=N)N)NC(=O)[C@@H](N)CCCNC(=N)N)C(=O)N[C@@H](CCCCN)C(N)=O [C5] (H-RRWQWR[Ahx]KLLKKLLK-NH2)
- MFC [1]: 97 µM (≈ 200 µg/mL)
- MFC ([2]; 256 HUSI-PUJ): 97 µM (≈ 200 µg/mL)
- Inhibition of growth [3]: more than 90%
- Inhibition of growth [4]: more than 90%
- Hemolytic effect [5]: 2–4%

Molecule: CC(C)C[C@H](NC(=O)[C@H](CC(C)C)NC(=O)[C@H](CCCNC(=N)N)NC(=O)[C@H](CCCNC(=N)N)NC(=O)[C@H](CC(C)C)NC(=O)[C@H](CC(C)C)NC(=O)[C@H](CCCNC(=N)N)NC(=O)CCCCCNC(=O)[C@H](CCCCN)NC(=O)[C@H](Cc1c[nH]c2ccccc12)NC(=O)[C@H](CCC(N)=O)NC(=O)[C@H](Cc1c[nH]c2ccccc12)NC(=O)[C@H](CCCCN)NC(=O)[C@@H](N)CCCCN)C(=O)N[C@@H](CCCNC(=N)N)C(N)=O [C6] (H-KKWQWK[Ahx]RLLRRLLR-NH2)
- MICa: MIC of the chimeric peptide alone ([6]; 537 HUSI-PUJ): 400 µg/mL
- MICa: MIC of the chimeric peptide alone ([7]; 001 HUSI-PUJ): 400 µg/mL
- MICa: MIC of the chimeric peptide alone ([8]; 1875 CHU-PUJ): 400 µg/mL
- MICa: MIC of the chimeric peptide alone ([9]; ATCC 2001): 100 µg/mL
- MFC [1]: 48 µM (≈ 100 µg/mL)
- MIC ([1]; ATCC SC5314, 48 h): 24 µM
- MFC ([2]; 256 HUSI-PUJ): 48 µM (≈ 100 µg/mL)
- MIC ([2]; 256 HUSI-PUJ): 24 µM
- MIC [10]: 96 µM (≈ 201 µg/mL)
- MIC [11]: 96 µM (≈ 201 µg/mL)
- MIC [12]: 96 µM (≈ 201 µg/mL)
- Inhibition of growth [3]: more than 90%
- Inhibition of growth [4]: more than 90%
- Hemolytic effect [5]: 2–4%
- MICa: MIC of the chimeric peptide alone [13]: 100 µg/mL

Molecule: OC(Cn1cncn1)(Cn1cncn1)c1ccc(F)cc1F [FLC, fluconazole, reference compound]
- MICb: MIC of fluconazole alone [6, 15]: 64 µg/mL
- MICb: MIC of fluconazole alone [7, 15]: 32 µg/mL
- MICb: MIC of fluconazole alone [8, 15]: 4 µg/mL
- MICb: MIC of fluconazole alone [9, 15]: 0.3 µg/mL
- MIC ([1]; FLC-sensitive reference strain, broth microdilution CLSI M27-A3, 37 °C, 48 h, ≥50% decrease vs growth control, n = 3): 1 µg/mL
- MIC ([2]; FLC-resistant clinical isolate, broth microdilution CLSI M27-A3, 37 °C, ≥50% decrease vs growth control, n = 3): 64 µg/mL

Molecule: RLLRRLLRRLLRRLLRRLLR [[RLLR]5, palindrome designed from the RLLR motif of Buforin II]
- MIC [14]: 0.7 µM
